From patent publication US8568972B2, “Substances causing differentiation” (Medicyte GmbH, priority 2000, dated 2013)
Entries after “also recorded” stand apart in the source; their conditions may differ.

Assays:
Assay type in all cases: cell-based, human
tumor cells U87 = assay: Change in cell morphology (differentiation); conditions: high concentrations
U87 [1] = assay: Flow cytometry (FACS) of background fluorescence in parent cell line (negative control line); conditions: 48 h, parent cells
From the text: U87H-GFP is a cell line derived from the human glioblastoma cell line U87 after stable transfection with plasmid pCMV-hygroEGFP. This plasmid which is integrated into the genomic DNA is derived from PCR-Script™ (Stratagene) and carries a fusion gene downstream of the human CMV promoter. This fusion gene contains the gene for resistance to hygromycin, which is linked to the gene coding for the enhanced green fluorescent protein (EGFP). The resulting gene (called H-GFP) codes for a protein which imparts resistance to hygromycin B and which can be readily detected by fluorescence microscopy and flow cytometry analysis. […] U87H-GFP and the parent line U87 were cultured in Dulbecco's Modified Eagle's Medium, (D-MEM, low glucose, Gibco, BRL) supplemented with 10% fetal calf serum (Seromed), 100 units/ml penicillin, 100 μg/ml streptomycin and 1 μg/ml amphotericine B (Gibco, BRL) at 37° C. in a humidified atmosphere containing 5% CO2. For the U87H-GFP cell line, the culture medium was supplemented with 600 units/ml hygromycin B (Calbiochem). U87H-GFP and the parent cells were seeded at 1-2×10^5 cells/well on 6-well plates (Nuclon, NUNC), using D-MEM without hygromycin B, and incubated for adhesion for 24 h. This was followed by adding 5-azacytidine and trichostatin A (Sigma Chemicals, Co.) at different final concentrations (2.5-5-10-20-40 μM for Aza; from 10 nM to 3 μM for TSA) to the culture medium. After two days of treatment, fluorescence microscopy and flow cytometry analyses were carried out. In order to prepare samples for FACS analysis, cells were incubated in the 6-well plates in 0.05% trypsin containing 0.5 mM EDTA (Gibco, BRL) at 37° C. for 5 min, followed by stopping the trypsin action by adding two volumes of culture medium. The cells were harvested, centrifuged at 500×g for 5 min and resuspended in 1 ml complete D-MEM. In order to stain dead cells, propidium iodide (final concentration 10 μg/ml) was added to each sample. The cells were then again centrifuged and resuspended in phosphate-buffered saline (PBS 1×, pH 7.4), before analyzing them by means of FACS. The cells were analyzed using FACScalibur (Becton Dickinson) with the flow rate corresponding to approximately 500 events/s. In order to exactly define a cell population and to exclude cell debris and aggregates, a region of interest was established on the dot plot (FSC compared to SSC). […] The fluorescence intensity of individual cells was measured on a logarithmic scale, each logarithmic histogram representing 2×10^4 counted events. The fluorescence intensity mean value (MFI) was the parameter used for defining the increase in the fluorescence intensity in each cell population.

U87H-GFP [2] = assay: Cell cycle analysis (BrdU incorporation / 7-AAD, FACS), reporter line; conditions: 5 μM Aza, 2 days
Procedure: (§1) U87H-GFP and the parent cells were seeded at 5×10^3/cm^2 in T25 flasks (Nuclon, NUNC), using D-MEM without hygromycin B for both cell lines. Half of the flasks were treated with 5 μM Aza and the other, as a negative control, without any medicaments. After 42 h, BrdU was added to the medium (final concentration of 10 μM), and 6 h later the cells were prepared for cell cycle analysis. The cells were harvested, centrifuged at 500×g for 5 min and fixed in chilled 70% strength ethanol for 20 min. BrdU incorporation into the DNA was detected by using 3×10^5 cells of each Aza-treated or untreated cell line. PBS 1×/0.5% BSA (washing buffer) was added, and the cells were centrifuged at 500×g for 5 min. The pellet was then resuspended in a denaturing solution (HCl 1M, PBS 0.5×BSA 0.5%) and washed again after 20 min. This was followed by re-suspending the pellet in 0.1M sodium borate (Na2B4O7), pH 8.5, for 2 min and then adding the washing buffer. After this passage, the total volume of each sample was divided into two halves (one half being used for the isotype antibody, the other one for the BrdU antibody), centrifuged at 500×g for 5 min, resuspended in the buffer containing the anti-isotype or anti-BrdU monoclonal antibodies (Becton Dickinson) and, after 30 min, washed with PBS 1×/0.5% BSA. The supernatant was discarded and the pellet resuspended in RNAse A (final concentration 100 μg/ml); the DNA was stained by also adding to the solution 7-AAD (Via-PROBE, Becton Dickinson). After 1 h (in the dark), the samples were washed and then resuspended in PBS 1×/0.5% BSA. DNA fluorescence of the nuclei (approximately 10^4 nuclei were analyzed for each cell population) was measured by means of the abovementioned FACScan flow cytometer (Becton Dickinson) and the percentages of cells in the G0 and G1, S, G2 and M phases of the cell cycle were analyzed on the basis of the FACScan software programs.

U87H-GFP [3] = assay: Flow cytometry (FACS) of H-GFP fusion gene expression under the hCMV promoter in reporter cell line; conditions: 48 h; for increase in the fluorescence intensity mean value: compared to untreated cells
From the text: U87H-GFP is a cell line derived from the human glioblastoma cell line U87 after stable transfection with plasmid pCMV-hygroEGFP. This plasmid which is integrated into the genomic DNA is derived from PCR-Script™ (Stratagene) and carries a fusion gene downstream of the human CMV promoter. This fusion gene contains the gene for resistance to hygromycin, which is linked to the gene coding for the enhanced green fluorescent protein (EGFP). The resulting gene (called H-GFP) codes for a protein which imparts resistance to hygromycin B and which can be readily detected by fluorescence microscopy and flow cytometry analysis. […] U87H-GFP and the parent line U87 were cultured in Dulbecco's Modified Eagle's Medium, (D-MEM, low glucose, Gibco, BRL) supplemented with 10% fetal calf serum (Seromed), 100 units/ml penicillin, 100 μg/ml streptomycin and 1 μg/ml amphotericine B (Gibco, BRL) at 37° C. in a humidified atmosphere containing 5% CO2. For the U87H-GFP cell line, the culture medium was supplemented with 600 units/ml hygromycin B (Calbiochem). U87H-GFP and the parent cells were seeded at 1-2×10^5 cells/well on 6-well plates (Nuclon, NUNC), using D-MEM without hygromycin B, and incubated for adhesion for 24 h. This was followed by adding 5-azacytidine and trichostatin A (Sigma Chemicals, Co.) at different final concentrations (2.5-5-10-20-40 μM for Aza; from 10 nM to 3 μM for TSA) to the culture medium. After two days of treatment, fluorescence microscopy and flow cytometry analyses were carried out. In order to prepare samples for FACS analysis, cells were incubated in the 6-well plates in 0.05% trypsin containing 0.5 mM EDTA (Gibco, BRL) at 37° C. for 5 min, followed by stopping the trypsin action by adding two volumes of culture medium. The cells were harvested, centrifuged at 500×g for 5 min and resuspended in 1 ml complete D-MEM. In order to stain dead cells, propidium iodide (final concentration 10 μg/ml) was added to each sample. The cells were then again centrifuged and resuspended in phosphate-buffered saline (PBS 1×, pH 7.4), before analyzing them by means of FACS. The cells were analyzed using FACScalibur (Becton Dickinson) with the flow rate corresponding to approximately 500 events/s. In order to exactly define a cell population and to exclude cell debris and aggregates, a region of interest was established on the dot plot (FSC compared to SSC). In the two-parameter histogram of propidium iodide, dead cells were distinguished by comparison to forward angle light scatter (FSC). The fluorescence intensity of individual cells was measured on a logarithmic scale, each logarithmic histogram representing 2×10^4 counted events. The fluorescence intensity mean value (MFI) was the parameter used for defining the increase in the fluorescence intensity in each cell population.

U87H-GFP [4] = assay: Fluorescence microscopy of H-GFP gene expression; conditions: for increase in the green fluorescent signal: 48 h; for upregulation of the CMV promoter, visible due to increased GFP fluorescence: very low concentrations, within two days, after removal of hygromycin
Procedure: U87H-GFP and the parent cells were seeded at 1-2×10^5 cells/well on 6-well plates (Nuclon, NUNC), using D-MEM without hygromycin B, and incubated for adhesion for 24 h. This was followed by adding 5-azacytidine and trichostatin A (Sigma Chemicals, Co.) at different final concentrations (2.5-5-10-20-40 μM for Aza; from 10 nM to 3 μM for TSA) to the culture medium. After two days of treatment, fluorescence microscopy and flow cytometry analyses were carried out. Approximately 10^5 cells of each cell line were seeded on polylysine-coated coverslips, treated with different concentrations of Aza and TSA for 48 h and then fixed in 5% formaldehyde at room temperature for 30 min. This was followed by analyzing all samples under a fluorescence microscope (Axiophot, Zeiss, Germany) and recording various images which correspond to the different final concentrations of each medicament (FIG. 1).

U87H-GFP [5] = assay: Flow cytometry (FACS) of H-GFP fusion gene expression under the hCMV promoter in reporter cell line
U87 [6] = assay: Cell cycle analysis (BrdU incorporation / 7-AAD, FACS), parent line; conditions: U87, 5 μM Aza, 2 days
Procedure: as §1

U87H-GFP [7] = assay: Toxicity, number of living cells observed by FACS; conditions: final TSA concentrations of more than 3 μM (data not shown)
Procedure: In order to prepare samples for FACS analysis, cells were incubated in the 6-well plates in 0.05% trypsin containing 0.5 mM EDTA (Gibco, BRL) at 37° C. for 5 min, followed by stopping the trypsin action by adding two volumes of culture medium. The cells were harvested, centrifuged at 500×g for 5 min and resuspended in 1 ml complete D-MEM. In order to stain dead cells, propidium iodide (final concentration 10 μg/ml) was added to each sample. The cells were then again centrifuged and resuspended in phosphate-buffered saline (PBS 1×, pH 7.4), before analyzing them by means of FACS.
In order to exactly define a cell population and to exclude cell debris and aggregates, a region of interest was established on the dot plot (FSC compared to SSC). In the two-parameter histogram of propidium iodide, dead cells were distinguished by comparison to forward angle light scatter (FSC). The fluorescence intensity of individual cells was measured on a logarithmic scale, each logarithmic histogram representing 2×10^4 counted events. The fluorescence intensity mean value (MFI) was the parameter used for defining the increase in the fluorescence intensity in each cell population.

[8] = U87H-GFP, listed as Azacytidine

Structure (SMILES): Nc1ncn([C@@H]2O[C@H](CO)[C@@H](O)[C@H]2O)c(=O)n1 [Aza, 5′-azacytidine]
- change in the morphology of the cells (tumor cells U87): a change in the morphology of the cells was observed
- shift of FACS fluorescence profile (U87 [1]; 20 μM Aza): small shift
- increase in the fluorescence intensity mean value (U87 [1]; highest concentration used (40 μM Aza)): approximately two-fold; also recorded: less than twice
- Percentages of cells in G1-G0 (U87H-GFP [2]; U87 H-GFP): 61.53 ± 4.06 %
- Percentages of cells in G2 (U87H-GFP [2]; U87 H-GFP): 8.77 ± 1.44%
- Percentages of cells in M (U87H-GFP [2]; U87 H-GFP): 16.26 ± 2.83 %
- Percentages of cells in S (U87H-GFP [2]; U87 H-GFP): 13.3 ± 3.26 %
- change in percentage of cells in G2 versus untreated (U87H-GFP [2]; U87 H-GFP): increased number
- effect on different cell cycle phases (apart from G2) (U87H-GFP [2]; U87 H-GFP): no significant differences
- change in percentage of cells in G2 versus untreated (U87H-GFP [2]; [8]): small increase
- effect on different cell cycle phases (apart from G2) (U87H-GFP [2]; [8]): no significant effect
- shift of FACS fluorescence profile toward higher fluorescence intensity (U87H-GFP [3]; 2.5 μM Aza): already clearly visible
- increase in the fluorescence intensity mean value (U87H-GFP [3]; 2.5 μM Aza): two-fold
- shift of FACS fluorescence profile toward higher fluorescence intensity (U87H-GFP [3]; 20 μM Aza): clearly visible; also recorded: well defined
- increase in the fluorescence intensity mean value (U87H-GFP [3]; 20 μM Aza): three-fold
- increase in the green fluorescent signal (U87H-GFP [4]; 20 μM Aza): clearly defined
- upregulation of the CMV promoter, visible due to increased GFP fluorescence (U87H-GFP [4]): very strong upregulation
- shift of FACS fluorescence profile toward higher fluorescence intensity (U87H-GFP [5]; 0.5 μM Aza, 48 h): completely superpose those of the untreated cells
- increase in the fluorescence intensity mean value (U87H-GFP [5]; 1 μM Aza alone, 48 h, compared to untreated cells): approximately two-fold; also recorded: about a two-fold
- shift in the fluorescence intensity average (U87H-GFP [5]; Aza retained for 144 h, identical final concentrations, versus 48 h experiment (data not shown)): same shift
- Percentages of cells in G1-G0 (U87 [6]): 62.61 ± 0.47%
- Percentages of cells in G2 (U87 [6]): 13.1 ± 2.36%
- Percentages of cells in M (U87 [6]): 10.58 ± 2.85%
- Percentages of cells in S (U87 [6]): 13.54 ± 1.25%
- changes in the cell cycle phases (U87 [6]): significant changes

Structure (SMILES): CC(/C=C/C(=O)NO)=C\[C@@H](C)C(=O)c1ccc(N(C)C)cc1 [TSA, trichostatin A]
- change in the morphology of the cells (tumor cells U87): a change in the morphology of the cells was observed
- shift of FACS fluorescence profile (U87 [1]; 1 μM TSA): small shift
- increase in fluorescence (U87 [1]; 3 μM TSA): two-fold
- toxicity, number of living cells (U87H-GFP [7]): highly toxic
- shift of FACS fluorescence profile / increase in H-GFP gene expression (U87H-GFP [3]; 100 nM TSA): completely superpose those of the untreated cells; also recorded: does not induce in any way an increase
- increase in the fluorescence intensity mean value (U87H-GFP [3]; 200 nM TSA alone): approximately two-fold; also recorded: about a two-fold
- increase in the fluorescence intensity (U87H-GFP [3]; 500 nM TSA): slight but significant increase
- shift of FACS fluorescence profile toward higher fluorescence intensity (U87H-GFP [3]; 1 μM TSA): clearly visible; also recorded: attains a saturation threshold
- increase in the fluorescence intensity mean value (U87H-GFP [3]; 1 μM TSA): three-fold
- increase in the fluorescence intensity mean value (U87H-GFP [3]; 3 μM TSA): four-fold
- increase in the fluorescence intensity (U87H-GFP [3]; TSA concentrations lower than 500 nM): not at the lower concentrations used
- increase in the green fluorescent signal (U87H-GFP [4]; 1 μM TSA): clearly defined
- upregulation of the CMV promoter, visible due to increased GFP fluorescence (U87H-GFP [4]): very strong upregulation
